Assay results as given in ChEMBL document CHEMBL2029309, “Proposed Bioactive Conformations of Opiorphin, an Endogenous Dual APN/NEP Inhibitor” (ACS Med Chem Lett, 2012).
Peptide text beside a SMILES is read from it.

How the values were obtained:
Neprilysin [1] = molecular target: T1, Neprilysin (Homo sapiens, UniProt P08473); test: Inhibition of human neprilysin
Aminopeptidase N [2] = molecular target: T2, Aminopeptidase N (Homo sapiens, UniProt P15144); test: Inhibition of human aminopeptidase N
T2 sequence (P15144 whole entry): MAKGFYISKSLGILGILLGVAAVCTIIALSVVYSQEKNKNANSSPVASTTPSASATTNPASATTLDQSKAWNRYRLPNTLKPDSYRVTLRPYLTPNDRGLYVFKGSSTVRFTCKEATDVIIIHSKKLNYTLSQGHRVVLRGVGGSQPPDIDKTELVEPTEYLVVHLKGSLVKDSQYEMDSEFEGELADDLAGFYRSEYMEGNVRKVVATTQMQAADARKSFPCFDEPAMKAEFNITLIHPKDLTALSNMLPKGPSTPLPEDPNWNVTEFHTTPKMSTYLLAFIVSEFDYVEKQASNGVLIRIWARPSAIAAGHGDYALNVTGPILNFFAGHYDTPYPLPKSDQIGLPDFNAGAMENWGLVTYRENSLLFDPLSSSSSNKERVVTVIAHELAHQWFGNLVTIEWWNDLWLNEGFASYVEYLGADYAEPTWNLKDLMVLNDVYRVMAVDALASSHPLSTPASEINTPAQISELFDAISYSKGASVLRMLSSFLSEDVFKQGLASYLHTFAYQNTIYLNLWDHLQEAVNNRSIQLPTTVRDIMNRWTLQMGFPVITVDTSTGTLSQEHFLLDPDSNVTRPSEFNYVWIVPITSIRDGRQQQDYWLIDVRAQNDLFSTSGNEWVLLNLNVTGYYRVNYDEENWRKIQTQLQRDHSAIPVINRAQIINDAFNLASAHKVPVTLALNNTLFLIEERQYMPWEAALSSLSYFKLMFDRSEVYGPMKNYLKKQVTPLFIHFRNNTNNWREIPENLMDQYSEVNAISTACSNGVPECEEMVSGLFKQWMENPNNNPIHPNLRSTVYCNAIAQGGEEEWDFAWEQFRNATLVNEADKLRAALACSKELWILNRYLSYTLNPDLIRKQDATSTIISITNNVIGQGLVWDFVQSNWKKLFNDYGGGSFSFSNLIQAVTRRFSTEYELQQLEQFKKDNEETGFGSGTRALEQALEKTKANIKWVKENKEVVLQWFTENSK

Aminopeptidase N [3] = molecular target: T2, Aminopeptidase N; test: Inhibition of human recombinant aminopeptidase N using Ala-Mca as substrate incubated for 10 mins prior to substrate addition measured for 40 mins by fluorometry
Neprilysin [4] = molecular target: T1, Neprilysin; test: Inhibition of human recombinant neprilysin using Abz-dR-G-L-EDDnp as substrate incubated for 10 mins prior to substrate addition measured for 40 mins by fluorometry

T1 sequence (P08473 whole entry): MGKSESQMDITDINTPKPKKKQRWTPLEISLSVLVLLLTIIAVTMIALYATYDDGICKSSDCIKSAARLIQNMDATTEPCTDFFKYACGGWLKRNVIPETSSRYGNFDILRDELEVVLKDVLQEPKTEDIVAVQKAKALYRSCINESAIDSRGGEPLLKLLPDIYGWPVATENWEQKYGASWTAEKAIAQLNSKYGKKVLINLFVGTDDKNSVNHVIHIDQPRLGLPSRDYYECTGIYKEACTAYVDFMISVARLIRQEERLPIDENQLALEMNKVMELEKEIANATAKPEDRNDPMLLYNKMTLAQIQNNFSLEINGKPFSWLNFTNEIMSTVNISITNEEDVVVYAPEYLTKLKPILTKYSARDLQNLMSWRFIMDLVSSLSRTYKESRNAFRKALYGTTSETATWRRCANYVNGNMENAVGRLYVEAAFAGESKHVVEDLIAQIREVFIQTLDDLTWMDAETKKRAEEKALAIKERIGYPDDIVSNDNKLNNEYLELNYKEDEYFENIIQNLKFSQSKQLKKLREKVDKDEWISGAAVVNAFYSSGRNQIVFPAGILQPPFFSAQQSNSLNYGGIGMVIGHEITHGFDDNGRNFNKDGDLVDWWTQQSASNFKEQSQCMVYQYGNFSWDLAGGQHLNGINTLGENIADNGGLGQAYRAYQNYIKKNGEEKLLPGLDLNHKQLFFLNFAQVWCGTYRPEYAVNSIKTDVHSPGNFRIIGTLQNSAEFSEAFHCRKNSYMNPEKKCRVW

Work on `N=C(N)NCCC[C@H](NC(=O)[C@H](CO)NC(=O)[C@H](Cc1ccccc1)NC(=O)[C@@H](N)CCCNC(=N)N)C(=O)O` [OPIORPHIN (2-5)] (H-RFSR-OH) yielded an IC50 (Neprilysin [1]) of 180 µM.

In the case of `NC(N)=NCCC[C@H](NC(=O)[C@H](CO)NC(=O)[C@@H](N)Cc1ccccc1)C(=O)O` [OPIORPHIN (3-5)] (H-Phe-Ser-Arg-OH), the IC50 (Aminopeptidase N [2]) is reported as 120 µM and the IC50 (Neprilysin [1]) is reported as 7 µM.

In the case of H-FQRFSR-OH, the IC50 (Aminopeptidase N [3]) is reported as 122 µM and the IC50 (Neprilysin [4]) is reported as 51 µM.

With H-NRFSR-OH the IC50 (Aminopeptidase N [3]) was > 100 µM and the IC50 (Neprilysin [4]) was 130 µM.

`N=C(N)NCCC[C@H](NC(=O)[C@@H](N)CCC(N)=O)C(=O)N[C@@H](Cc1ccccc1)C(=O)N[C@@H](CO)C(=O)O` [OPIORPHIN (1-4)] (H-QRFS-OH) was tested, and the IC50 (Neprilysin [1]) was > 100 µM.

With H-QRFTR-OH the IC50 (Aminopeptidase N [3]) was > 100 µM and the IC50 (Neprilysin [4]) was > 100 µM.
